The results in this text go back to ChEMBL document CHEMBL1143554, “4-phenoxypiperidines: potent, conformationally restricted, non-imidazole histamine H3 antagonists” (J Med Chem, 2005).

SMILES strings stand for the structures. pKi: −log10 of the molar value. Where only a bound is given, the exact number is not on record here.

Test [1] concerns the target T1, Histamine H3 receptor (Homo sapiens, UniProt Q9Y5N1). As to the kind of experiment: Mean binding affinity for human H3 receptor.
Test [2] has as its target T1, Histamine H3 receptor. As to the kind of experiment: Mean functional activity against human H3 receptor. The following applies: read-out: pA2 (converted).

T1 sequence (Q9Y5N1 whole entry): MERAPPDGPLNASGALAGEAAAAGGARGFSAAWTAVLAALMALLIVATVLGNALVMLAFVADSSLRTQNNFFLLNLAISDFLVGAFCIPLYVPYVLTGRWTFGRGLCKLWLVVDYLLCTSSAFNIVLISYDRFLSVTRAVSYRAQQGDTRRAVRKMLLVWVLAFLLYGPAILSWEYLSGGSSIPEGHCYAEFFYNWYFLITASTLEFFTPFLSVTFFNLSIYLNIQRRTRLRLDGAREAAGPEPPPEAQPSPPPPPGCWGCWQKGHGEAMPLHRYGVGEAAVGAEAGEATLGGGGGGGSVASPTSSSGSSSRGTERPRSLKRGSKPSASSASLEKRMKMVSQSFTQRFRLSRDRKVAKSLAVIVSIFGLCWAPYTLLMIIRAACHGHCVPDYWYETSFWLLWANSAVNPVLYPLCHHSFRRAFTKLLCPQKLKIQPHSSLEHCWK

For `CC(C)N1CCC(Oc2ccc(CN(C)CCN(C)C)cc2)CC1`, the pKi (as a rule, the negative decadic logarithm of the Ki, by convention in mol/L) on Histamine H3 receptor [1] is 8.94. The Kb on Histamine H3 receptor [2] was 0.214 nM. On the same counts, the results for `CCCCN(C)Cc1ccc(OC2CCN(C(C)C)CC2)cc1` are 8.83 and 0.339 nM. In turn, `CC(C)N1CCC(Oc2ccc(CN3CCCCC3)cc2)CC1` showed a pKi on Histamine H3 receptor [1] of 9.20. Besides, the Kb on Histamine H3 receptor [2] was 0.126 nM. Regarding `CC(C)CN1CCC(Oc2ccc(C#N)cc2)CC1`, at Histamine H3 receptor [1], the pKi is 7.18.

For `CC(C)N1CCC(Oc2ccc(CNc3ccccc3)cc2)CC1`, the pKi on Histamine H3 receptor [1] is 8.26. Moreover, the Kb on Histamine H3 receptor [2] is 2.69 nM. Compound `CC(C)N1CCC(Oc2ccc(CN3CCC(Cc4ccccc4)CC3)cc2)CC1` had a pKi at Histamine H3 receptor [1] of 8.84. For the same compound, the Kb on Histamine H3 receptor [2] was 0.813 nM. On to `CC(C)N1CCC(Oc2ccc(CN3CCCCCC3)cc2)CC1`, for which, on Histamine H3 receptor [1], the pKi is 8.77. In addition, the Kb at Histamine H3 receptor [2] is 0.174 nM. `CC(C)N1CCC(Oc2ccc(CN3CCC(O)CC3)cc2)CC1`: the negative logarithm of the Ki (pKi) at Histamine H3 receptor [1] was 8.85. Further, the Kb on Histamine H3 receptor [2] is 0.331 nM.

Compound `CC(C)N1CCC(Oc2ccc(CN3CCN(c4ccccc4)CC3)cc2)CC1` showed a pKi at Histamine H3 receptor [1] of 8.70. Moreover, at Histamine H3 receptor [2], the Kb was 1.02 nM. As for `Cc1ccc2nc(-c3ccc(OCCCN4CCCCC4)cc3)cn2c1`, at Histamine H3 receptor [2], the Kb was 2.04 nM. Compound `CCN1CCC(Oc2ccc(C#N)cc2)CC1` showed a pKi on Histamine H3 receptor [1] of 7.09. At Histamine H3 receptor [1], `C[C@@H]1CCCN1CCc1cc2cc(C#N)ccc2o1` showed a pKi of 9.35. `CC(C)N1CCC(Oc2ccc(CN3CCC(CO)CC3)cc2)CC1` gave a pKi at Histamine H3 receptor [1] of 9.00. Also, the Kb on Histamine H3 receptor [2] is 0.257 nM. On Histamine H3 receptor [1], `CCCN1CCC(Oc2ccc(C#N)cc2)CC1` had a pKi of 6.97.

On Histamine H3 receptor [1], `CC(C)N1CCC(Oc2ccc(CN3CCN(Cc4ccccc4)CC3)cc2)CC1` showed a pKi of 8.70. The Kb at Histamine H3 receptor [2] was 0.661 nM. `CC(C)N1CCC(Oc2ccc(CN(C)C)cc2)CC1` gave a pKi on Histamine H3 receptor [1] of 8.52. The Kb at Histamine H3 receptor [2] is 1.17 nM.

As for `CC(C)N1CCC(Oc2ccc(CN3CCN(C)CC3)cc2)CC1`, on Histamine H3 receptor [1], the pKi is 9.13. Also, the Kb at Histamine H3 receptor [2] was 0.257 nM. In the case of `N#Cc1ccc(OC2CCN(C3CCCCC3)CC2)cc1`, at Histamine H3 receptor [1], the pKi is 7.49. `CC(C)N1CCC(Oc2ccc(CN3CCCN(C)CC3)cc2)CC1`: the pKi at Histamine H3 receptor [1] is 9.00. In addition, the Kb on Histamine H3 receptor [2] is 0.324 nM. Compound `N#Cc1ccc(OC2CCNCC2)cc1` showed a pKi on Histamine H3 receptor [1] below 5.00.

Consider `CC(C)N1CCC(Oc2ccc(CNC3CC3)cc2)CC1`, for which, on Histamine H3 receptor [1], the pKi was 8.79. Further, the Kb on Histamine H3 receptor [2] was 0.457 nM. `CCC(CC)N1CCN(C(=O)CCC(=O)c2ccc(Cl)cc2)CC1` showed a pKi on Histamine H3 receptor [1] of 9.06. In turn, `CC(C)N1CCC(Oc2ccc(CNc3ccccn3)cc2)CC1` had a pKi at Histamine H3 receptor [1] of 8.65. The Kb on Histamine H3 receptor [2] is 0.741 nM. In turn, `N#Cc1ccc(OCCCCCN2CCCC2)cc1` gave a pKi at Histamine H3 receptor [1] of 7.72. `CC(CO)N1CCC(Oc2ccc(C#N)cc2)CC1` (stereo not given) gave a pKi at Histamine H3 receptor [1] of 6.12. At Histamine H3 receptor [1], `CCN(CC)Cc1ccc(OC2CCN(C(C)C)CC2)cc1` had a pKi of 8.91. The Kb at Histamine H3 receptor [2] was 0.468 nM. `CC(C)N1CCC(Oc2ccc(CN3CCCC3)cc2)CC1` had a pKi on Histamine H3 receptor [1] of 8.71. In addition, the Kb on Histamine H3 receptor [2] was 0.355 nM. Turning to `CCC(C)N1CCC(Oc2ccc(C#N)cc2)CC1` (stereo not given), the pKi at Histamine H3 receptor [1] is 7.82.
